The record followed here is patent US20250361241A1, “HPK1 INHIBITOR AND MEDICAL USE THEREOF” (Betta Pharmaceuticals Co., Ltd., priority 2022, published 2025).

For this assay, the target named is HPK1 (Homo sapiens (Human), UniProt Q92918). Description: HPK1 enzyme activity detection (1 mM ATP system), ADP-Glo with MBP substrate, Pharmacological Experiment 2. It counts as biochemical. As to the method:
Pharmacological Experiment 2: […] The test compound was serially diluted using DMSO to 200 times the detection concentration. […] Centrifuge at 1000×g for 30 seconds and incubate at 25° C. for 15 minutes. • (5) Adding ATP and substrate: Add 2 μL of 2×ATP-MBP solution to the 384-well plate and centrifuge at 1000×g for 30 seconds. Seal the plate with a sealing film and incubate at 25° C. for 60 minutes. • (6) Add ADP-Glo reagent: Add 4 μL ADP-Glo reagent (Promega, V9103) to the 384-well plate, centrifuge at 1000×g for 30 seconds, and incubate at 25° C. for 60 minutes. • (7) Detection of luminescent signal; Add 8 μL of luminescent detection reagent (Promega, V9103) to a 384-well plate, centrifuge at 1000×g for 30 seconds, and incubate at 25° C. for 60 minutes. The chemiluminescent signal was read using a BMG instrument. • (8) Calculation of percentage inhibition rate: […] See Table 2 for the enzymatic IC 50 data of the example compounds on HPK1.
On the technique in general: ADP-Glo first removes unused ATP, then detects ADP through luciferase.

The IC50 is the concentration needed to halve the response being measured.

Sequence of HPK1 (Q92918 whole entry, species assumed): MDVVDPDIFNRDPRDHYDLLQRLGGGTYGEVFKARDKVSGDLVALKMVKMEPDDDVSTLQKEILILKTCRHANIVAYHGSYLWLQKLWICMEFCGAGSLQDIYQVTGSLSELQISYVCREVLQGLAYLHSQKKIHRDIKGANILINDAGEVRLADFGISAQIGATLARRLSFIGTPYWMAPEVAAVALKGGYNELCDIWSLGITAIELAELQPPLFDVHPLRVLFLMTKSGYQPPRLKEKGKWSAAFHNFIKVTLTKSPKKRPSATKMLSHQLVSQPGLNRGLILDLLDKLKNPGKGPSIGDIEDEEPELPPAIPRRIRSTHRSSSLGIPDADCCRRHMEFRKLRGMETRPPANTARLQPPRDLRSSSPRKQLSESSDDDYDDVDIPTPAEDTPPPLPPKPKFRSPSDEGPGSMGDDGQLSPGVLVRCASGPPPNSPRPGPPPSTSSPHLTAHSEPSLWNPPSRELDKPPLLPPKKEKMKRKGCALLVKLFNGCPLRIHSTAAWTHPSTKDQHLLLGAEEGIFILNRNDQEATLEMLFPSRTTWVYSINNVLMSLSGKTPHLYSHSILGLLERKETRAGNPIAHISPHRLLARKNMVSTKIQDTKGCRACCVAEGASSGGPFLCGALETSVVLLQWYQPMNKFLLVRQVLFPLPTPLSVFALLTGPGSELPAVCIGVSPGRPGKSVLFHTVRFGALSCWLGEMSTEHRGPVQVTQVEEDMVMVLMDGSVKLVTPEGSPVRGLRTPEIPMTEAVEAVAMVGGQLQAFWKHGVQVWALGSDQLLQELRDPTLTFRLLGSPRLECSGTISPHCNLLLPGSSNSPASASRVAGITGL

Consider “4-(8-FLUORO-7-METHYLIMIDAZO[1,2-A]PYRIDIN-3-YL)-7-((2,3,5,6,7′,8′-HEXAHYDRO-6′H-SPIRO[PYRAN-4, 5′-[1,7]NAPHTHYRIDINE]-2′-YL)AMINO)ISOINDOL-1-ONE [Compound 149]”, for which the IC50 was determined as 0.00442 µM.

“7-((2,3,5,6,7′,8′-HEXAHYDRO-6′-H-PYRANO[4,5′-[1,7]NAPHTHYRIDINE]-2′-YL)AMINO)-4-(7-(TRIFLUOROMETHYL)IMIDAZO[1,2-A]PYRIDIN-3-YL)ISOINDOL-1-ONE [Compound 147]” displayed an IC50 of 0.022 µM.

As to `Cc1cc(Nc2ccc(-c3cnc4cc(F)ccn34)c3c2C(=O)NC3)nc2c1C1(CCOCC1)C[C@H]2N(C)C` [Compound 28, (R)-7-((7-(DIMETHYLAMINO)-4-METHYL-2′,3′,5′,6,6′,7-HEXAHYDROSPIRO[B]PYRIDIN-5,4′-PYRAN]-2-YL)AMINO)-4-(7-FLUOROIMIDAZO[1,2-A]PYRIDIN-3-YL)ISOINDOLIN-1-ONE], the midpoint of inhibition, the IC50, lay at 0.00127 µM.

In turn, `Cc1cc(Nc2cnc(-c3ccnc4c3ccn4C)c3c2C(=O)NC3)nc2c1C1(CCOCC1)CC2N(C)C` (centres unmarked) [Compound 30] yielded an IC50 of 0.00422 µM.

On to `CN(C)C1CCC2(CCOCC2)c2ccc(Nc3ccc(-c4cnc5cc(Cl)ccn45)c4c3C(=O)NC4)nc21` (centres unmarked) [Compound 31], for which the IC50 came to 0.00453 µM.

Take `CN(C)C1CCC2(CCOCC2)c2ccc(Nc3ccc(-c4cnn5cccnc45)c4c3C(=O)NC4)nc21` (centres unmarked) [Compound 45]: half-maximal inhibition (IC50) was put at 0.00308 µM.

`O=C1NCc2c(-c3cnc4cc(F)ccn34)ccc(Nc3ccc4c(n3)C(N3CCC(F)(F)C3)CC43CCOCC3)c21` (centres unmarked) [Compound 72, 7-((7-(3,3-DIFLUOROPYRROLIDIN-1-YL)-2′,3′,5′6,6′,7-HEXAHYDROSPIRO[B]PYRIDINE-5,4′-PYRAN]-2-YL)AMINO)-4-(7-FLUOROIMIDAZOLE[1,2-A]PYRIDIN-3-YL)ISOINDOL-1-ONE] displayed an IC50 of 0.143 µM.

For the compound `CC(=O)N1CCN(C2CC3(CCOCC3)c3ccc(Nc4ccc(-c5cnc6cc(F)ccn56)c5c4C(=O)NC5)nc32)CC1` (centres unmarked) [Compound 92], the midpoint of inhibition, the IC50, lay at 0.0752 µM.

With `CC1(O)CCN(C2CC3(CCOCC3)c3ccc(Nc4ccc(-c5cnc6cc(F)ccn56)c5c4C(=O)NC5)nc32)CC1` (centres unmarked) [Compound 95], the IC50 stood at 0.00636 µM.

As for `CC1(C)CN(C2CC3(CCOCC3)c3ccc(Nc4ccc(-c5cnc6cc(F)ccn56)c5c4C(=O)NC5)nc32)CCO1` (centres unmarked) [Compound 96], the IC50 turned out to be 0.0725 µM.

In the case of `C[C@H]1CN(C2CC3(CCOCC3)c3ccc(Nc4ccc(-c5cnc6cc(F)ccn56)c5c4C(=O)NC5)nc32)CCO1` (some centres unmarked) [Compound 97], it took 0.0075 µM to reach half-maximal inhibition (IC50).

In turn, `O=C1NCc2c(-c3cnc4cc(F)ccn34)ccc(Nc3ccc4c(n3)C(N3CCNCC3)CC43CCOCC3)c21` (centres unmarked) [Compound 99] returned an IC50 of 0.171 µM.

The compound `CN1Cc2nc(Nc3ccc(-c4cnc5cc(F)ccn45)c4c3C(=O)NC4)ccc2C2(CCOCC2)C1` [Compound 100, 4-(7-FLUOROIMIDAZO[1,2-A]PYRIDIN-3-YL)-7-((7′-(METHYL-D3)-2,3,5,6,7′,8′-HEXAHYDRO-6′H-SPIRO[PYRAN-4,5′-[1,7]NAPHTHYRIDINE]-2′-YL)AMINO)ISOINDOL-1-ONE] came in with an IC50 of 0.0031 µM.

In turn, `O=C1NCc2c(-c3cnc4cc(F)ccn34)ccc(Nc3ccc4c(n3)C(N3CCOC5(CC5)C3)CC43CCOCC3)c21` (centres unmarked) [Compound 111] returned an IC50 of 0.0302 µM.

The compound `C[C@@H]1CN(C2CC3(CCOCC3)c3ccc(Nc4ccc(-c5cnc6cc(F)ccn56)c5c4C(=O)NC5)nc32)C[C@@H](C)O1` (some centres unmarked) [Compound 112] registered an IC50 of 0.0487 µM.

`C[C@@H]1CN(C2CC3(CCOCC3)c3ccc(Nc4ccc(-c5cnc6cc(F)ccn56)c5c4C(=O)NC5)nc32)C[C@H](C)O1` (some centres unmarked) [Compound 113] registered an IC50 of 0.00621 µM.

In the case of `CN(CC(F)F)C1CC2(CCOCC2)c2ccc(Nc3ccc(-c4cnc5cc(F)ccn45)c4c3C(=O)NC4)nc21` (centres unmarked) [Compound 114], the midpoint of inhibition, the IC50, lay at 0.0925 µM.

On to `O=C1NCc2c(-c3cnc4cc(F)ccn34)ccc(Nc3ccc4c(n3)C(N3CC5CCC(C3)O5)CC43CCOCC3)c21` (centres unmarked) [Compound 116], for which the IC50 worked out at 0.0798 µM.

`O=C1NCc2c(-c3cnc4cc(F)ccn34)ccc(Nc3ccc4c(n3)C(NCC(F)(F)F)CC43CCOCC3)c21` (centres unmarked) [Compound 118] had an IC50 of 0.0711 µM.

Consider `CC(C)CNC1CC2(CCOCC2)c2ccc(Nc3ccc(-c4cnc5cc(F)ccn45)c4c3C(=O)NC4)nc21` (centres unmarked) [Compound 141], for which the IC50 came to 0.00307 µM.

As for `CC(C)NC1CC2(CCOCC2)c2ccc(Nc3ccc(-c4cnc5cc(Cl)ccn45)c4c3C(=O)NC4)nc21` (centres unmarked) [Compound 142], the IC50 turned out to be 0.00452 µM.

As to `O=C1NCc2c(-c3cnc4cc(F)ccn34)ccc(Nc3ccc4c(n3)C(N3C[C@H]5C[C@@H]3CO5)CC43CCOCC3)c21` (some centres unmarked) [Compound 143], the IC50 was 0.00351 µM.

With `CC(=O)N1Cc2nc(Nc3ccc(-c4cnc5cc(F)ccn45)c4c3C(=O)NC4)ccc2C2(CCCCC2)C1` [Compound 145], the IC50 came to 0.0381 µM.

With `COc1ccn2c(-c3ccc(Nc4ccc5c(n4)CCCC54CCOCC4)c4c3CNC4=O)cnc2c1` [Compound 148], the IC50 worked out at 0.0218 µM.

`O=C1NCc2c(-c3cnc4cc(F)c(Cl)cn34)ccc(Nc3ccc4c(n3)CCCC43CCOCC3)c21` [Compound 150] returned an IC50 of 0.0304 µM.

With `O=C1N=Cc2c(-c3cnc4cc(Cl)ccn34)ccc(Nc3ccc4c(n3)CNCC43CC3)c21` [Compound 152, 4-(7-CHLOROIMIDAZO[1,2-A]PYRIDIN-3-YL)-7-((7′,8′-DIHYDRO-6′H-SPIRO[CYCLOPROPANE-1,5′-[1,7]NAPHTHYRIDINE]-2′-YL)AMINO)ISOINDOL-1-ONE], inhibition was half-maximal at 0.0144 µM (IC50).

Regarding `C#CCN1Cc2nc(Nc3ccc(-c4cnc5cc(F)ccn45)c4c3C(=O)NC4)ccc2C2(CCOCC2)C1` [Compound 155], the midpoint of inhibition, the IC50, lay at 0.243 µM.

Compound `C#CCN1Cc2nc(Nc3ccc(-c4cnc5cc(F)ccn45)c4c3C(=O)NC4)ccc2C2(CCOCC2)C1` [Compound 156] gave an IC50 of 0.0387 µM.

On to `CN(C)C1CC2(CCOCC2)c2ccc(Nc3ccc(-c4cnc5c(F)cccn45)c4c3C(=O)NC4)nc21` (centres unmarked) [Compound 159], for which half-maximal inhibition (IC50) was put at 0.00541 µM.

On to `CN(C)C1CC2(CCOCC2)c2ccc(Nc3ccc(-c4cnc5ccc(F)cn45)c4c3C(=O)NC4)nc21` (centres unmarked) [Compound 162], for which the IC50 was 0.0186 µM.

Turning to `CC(C)c1ccn2c(-c3ccc(Nc4ccc5c(n4)C(N(C)C)CC54CCOCC4)c4c3CNC4=O)cnc2c1` (centres unmarked) [Compound 163, 7-((7-(DIMETHYLAMINO)-2′,3′,5′,6,6′,7-HEXAHYDROSPIRO[CYCLOPENTANE[B]PYRIDINE-5,4′-PYRAN]-2-YL)AMINO)-4-(7-ISOPROPYLIMIDAZO[1,2-A]PYRIDIN-3-YL)ISOINDOL-1-ONE], the IC50 was found to be 0.0253 µM.

The compound `CN(C)C1CC2(CCOCC2)c2ccc(Nc3ccc(-c4cnc5n4CCCC5)c4c3C(=O)NC4)nc21` (centres unmarked) [Compound 166, 7-((7-(DIMETHYLAMINO)-2′,3′,5′,6,6′,7-HEXAHYDROSPIRO[CYCLOPENTANE[B]PYRIDINE-5,4′-PYRAN]-2-YL)AMINO)-4-(5,6,7,8-TETRAHYDROIMIDAZO[1,2-A]PYRIDIN-3-YL)ISOINDOL-1-ONE] showed an IC50 of 0.0257 µM.

The compound `COc1ccn2c(-c3ccc(Nc4ccc5c(n4)C(N(C)C)CC54CCOCC4)c4c3CNC4=O)cnc2c1` (centres unmarked) [Compound 170] showed an IC50 of 0.00688 µM.

In turn, `CN(C)C1CC2(CCOCC2)c2ccc(Nc3ccc(-c4cnc5cc(O)ccn45)c4c3C(=O)NC4)nc21` (centres unmarked) [Compound 171] displayed an IC50 of 0.035 µM.

With `CN(C)C1CC2(CCOCC2)c2ccc(Nc3ccc(-c4cnc5cc(OC(F)(F)F)ccn45)c4c3C(=O)NC4)nc21` (centres unmarked) [Compound 175], it took 0.0168 µM to reach half-maximal inhibition (IC50).
